The structures appear in SMILES notation.

One experiment has as its system HMPV clinical isolate A2 strain TN 94-49. The experiment in a line: HMPV antiviral assay, Method 2 (LLC-MK2 cells with CP-100-356, ATP-Lite). The experiment is classed as cell-based. To be noted: human metapneumovirus, 168 h; hMPV A2 TN/94-49, LLC-MK2 cells with 4 μM CP-100-356, 7 days, ATP-Lite. In short, it runs like this: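 LLC-MK2 rhesus kidney cells (5,000/well) infected in suspension with HMPV A2 TN 94-49 at MOI 0.16, in serum-free medium with final 2 μg/mL TPCK-trypsin and 2 μM CP-100-356. Compounds tested in duplicate from 200 nM, 2.5-fold, 10 points; 7 days at 37 °C. Cell health by ATP-Lite luminescence; EC50 by four-parameter fit.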
For the molecule `COc1cc(C(=O)NC[C@](O)(c2cc3c(c(-c4ccnc(C(C)C)c4Cl)n2)OC[C@]3(C)C(N)=O)C2CC2)cc2cn(C3(F)CC3)nc12` [Example 908], the EC50 (usually the concentration needed to bring the measured effect to its halfway point) is greater than 200 nM.

In the case of `CCc1nccc(-c2nc([C@@](O)(CNC(=O)c3cc(OC)c4nn(C5CC5)cc4c3)C3CC3)cc3c2OC[C@]3(C)C(N)=O)c1Cl` [Example 807], the EC50 is less than 200 nM.

On to `COc1nccc(-c2nc([C@@](O)(CNC(=O)c3cc(OC)c4nn(C5CC5)cc4c3)c3cccc(F)c3)cc3c2OC[C@]3(C)C(N)=O)c1Cl` [Example 877], for which the EC50 is less than 200 nM.

In the case of `COc1cccc2c1cnn2-c1nc([C@@](O)(CNC(=O)c2cc(OC)c3nn(C4CC4)cc3c2)C2CC2)cc2c1OC[C@]2(C)C(N)=O` [Example 833], the EC50 is greater than 200 nM.

On to `COc1nccc(-c2nc([C@@](O)(CNC(=O)c3cc(OC4CC4)c4nn(C(F)F)cc4c3)C(C)C)cc3c2OC[C@]3(C)C(N)=O)c1Cl` [Example 894], for which the EC50 was greater than 200 nM.

As to `COc1cc(C(=O)NC[C@](O)(c2cc3c(c(-n4ncc5c4CCCC5)n2)OC[C@]3(C)C(N)=O)C2CC2)cc2cn(C(F)F)nc12` [Example 641], the EC50 was greater than 200 nM.

Molecule `COc1cc(C(=O)NC[C@@](O)(c2ccc(F)cc2)c2cc3c(c(-c4ccnc(C)c4Cl)n2)OC[C@]3(C)C(N)=O)cc2oc(C3CC3)nc12` [Example 649] yielded an EC50 of less than 200 nM.

`COc1cc(C(=O)NC[C@](O)(c2cc3c(c(-c4cc(C(F)(F)F)ncc4F)n2)OC[C@]3(C)C(N)=O)C2(F)CC2)cc2cn(C(F)F)nc12` [Example 667] registered an EC50 of less than 200 nM.

`COc1cc(C(=O)NC[C@](O)(c2cc3c(c(-c4ccnc(C5CCOCC5)c4Cl)n2)OC[C@]3(C)C(N)=O)C2CC2)cc2cn(C3CC3)nc12` [Example 903] yielded an EC50 greater than 200 nM.

The molecule `COc1cc(C(=O)NC[C@](O)(c2cc3c(c(-c4ccnc(C)c4F)n2)OC[C@]3(C)C(N)=O)C2CC2)cc2cn(C3CC3)nc12` [Example 817] displayed an EC50 of less than 200 nM.

`COc1nccc(-c2nc([C@@](O)(CNC(=O)c3cc(OC4CC4)c4nn(C(F)F)cc4c3)c3ccccc3)cc3c2OC[C@]3(C)C(N)=O)c1Cl` [Example 901] returned an EC50 of less than 200 nM.

As for `C[C@]1(C(N)=O)COc2c1cc([C@@](O)(CNC(=O)c1cc(OC3CC3)c3nn(C(F)F)cc3c1)C1CC1)nc2-n1ncc2c(F)cccc21` [Example 652], the EC50 was less than 200 nM.

Molecule `COc1nccc(-c2nc([C@@](O)(CNC(=O)c3cc(OC4CC4)c4nn(C5(F)CC5)cc4c3)C3(F)CC3)cc3c2OC[C@]3(C)C(N)=O)c1Cl` [Example 658] had an EC50 of less than 200 nM.

`COc1nccc(-c2nc([C@@](O)(CNC(=O)c3cc(OC)c4nc(C)c(Cl)cc4c3)c3cccc(F)c3)cc3c2OC[C@]3(C)C(N)=O)c1Cl` [Example 659] registered an EC50 of less than 200 nM.

`C[C@]1(C(N)=O)COc2c1cc([C@@](O)(CNC(=O)c1cc(OC3CC3)c3nn(C4(F)CC4)cc3c1)C1CC1)nc2-n1ncc2c(F)cccc21` [Example 651] gave an EC50 of less than 200 nM.

`COc1nccc(-c2nc([C@@](O)(CNC(=O)c3cc(OC)c4nn(C5CC5)cc4c3)C3CC3)cc3c2OC[C@]3(C)C(N)=O)c1OC` [Example 813]: the EC50 is greater than 200 nM.

The experiment is the same for the next values; noted with them: human metapneumovirus; hMPV A2 TN/94-49, LLC-MK2 cells with CP-100-356, Method 2.
`C[C@]1(C(N)=O)COc2c1cc([C@@](O)(CNC(=O)c1ccc3nc(C4CC4)oc3c1)c1ccccc1)nc2-c1ccc2c(c1)OC(F)(F)O2` [Example 199] displayed an EC50 greater than 200 nM.

For the molecule `COc1cc(C(=O)NC[C@@](O)(c2ccccc2)c2cc3c(c(-c4cccc5c4OCO5)n2)OC[C@]3(C)C(N)=O)cc2cn(C3(F)CC3)nc12` [Example 366], the EC50 was greater than 200 nM.

On to `C[C@]1(C(N)=O)COc2c1cc([C@@](O)(CNC(=O)c1cc(OC3CC3)c3ncc(Cl)cc3c1)C1CC1)nc2-c1cc(Cl)c(F)cc1F` [Example 226], for which the EC50 was less than 200 nM.

For `COc1cc(C(=O)NC[C@@](O)(c2ccnc(N)c2)c2cc3c(c(-c4cc(Cl)c(F)cc4F)n2)OC[C@]3(C)C(N)=O)cc2cn(C3CC3)nc12` [Example 484], the EC50 was less than 200 nM.

In turn, `COc1cc(C(=O)NC[C@](O)(c2cc3c(c(-c4ccc(F)c(C(F)(F)F)c4)n2)OC[C@]3(C)C(N)=O)C2CC2)cc2oc(C3CC3)nc12` [Example 330] gave an EC50 of less than 200 nM.

For `Cc1nc2ccc(C(=O)NC[C@@](O)(c3ccccc3)c3cc4c(c(-c5cc(F)c(F)cc5F)n3)OC[C@]4(C)C(N)=O)cc2o1` [Example 192], the concentration for a half-maximal effect (EC50) was less than 200 nM.

Take `COc1cc(C(=O)NC[C@](O)(c2cc3c(c(-c4ccnc(C(F)(F)F)c4Cl)n2)OC[C@]3(C)C(N)=O)C(F)(F)F)cc2oc(C(F)F)nc12` [Example 597]: the EC50 is less than 200 nM.

For `COc1cc(C(=O)NC[C@](O)(c2cc3c(c(-c4ccnc(C)c4Cl)n2)OC[C@]3(C)C(N)=O)C2(F)CC2)cc2cn(C3(F)CC3)nc12` [Example 525], the EC50 is less than 200 nM.

As for `COc1cc(C(=O)NC[C@@](O)(c2cccc(F)n2)c2cc3c(c(-c4cc(Cl)c(F)cc4F)n2)OC[C@]3(C)C(N)=O)cc2cn(C3CC3)nc12` [Example 203], the EC50 was less than 200 nM.

`COc1cc(OC)c2cc(C(=O)NC[C@@](O)(c3ccccc3)c3cc4c(c(-c5cc(Cl)c(F)cc5F)n3)OC[C@]4(C)C(N)=O)[nH]c2c1` [Example 94]: the EC50 is greater than 200 nM.

In turn, `C[C@]1(C(N)=O)COc2c1cc([C@@](O)(CNC(=O)c1cc(Cl)c3nc(C4CC4)oc3c1)c1ccccc1)nc2-c1cc(Cl)c(F)cc1F` [Example 232] returned an EC50 of less than 200 nM.

Take `COc1cc(C(=O)NC[C@](O)(c2cc3c(c(-c4cc(Cl)c(F)cc4F)n2)OC[C@]3(C)C(N)=O)c2nccn2C)cc2cn(C3CC3)nc12` [Example 464]: the EC50 was greater than 200 nM.

Molecule `COc1nccc(-c2nc([C@@](O)(CNC(=O)c3cc(OC)c4nc(C5CC5)oc4c3)c3cccc(F)c3)cc3c2OC[C@]3(C)C(N)=O)c1Cl` [Example 560] registered an EC50 of less than 200 nM.

Molecule `COc1cc(C(=O)NC[C@@](O)(c2ccccc2)c2cc3c(c(-c4ccnc(F)c4Cl)n2)OC[C@]3(C)C(N)=O)cc2cn(C(F)F)nc12` [Example 358] yielded an EC50 of less than 200 nM.

Regarding `COc1cc(C(=O)NC[C@](O)(c2cc3c(c(-c4cc(C(F)(F)F)c(F)cc4F)n2)OC[C@]3(C)C(N)=O)C2CC2)cc2cc(Cl)cnc12` [Example 316], the EC50 is less than 200 nM.

In the case of `COc1cc(C(=O)NC[C@@](O)(c2cc[nH]c(=O)c2)c2cc3c(c(-c4cc(Cl)c(F)cc4F)n2)OC[C@]3(C)C(N)=O)cc2cn(C3CC3)nc12` [Example 504], the EC50 was greater than 200 nM.

Regarding `COc1cc(-c2nc([C@@](O)(CNC(=O)c3cc(OC)c4nn(C5(F)CC5)cc4c3)c3ccccc3)cc3c2OC[C@]3(C)C(N)=O)c(F)cc1F` [Example 364], the EC50 was greater than 200 nM.

`COc1cc(C(=O)NC[C@@](O)(c2ccccc2)c2cc3c(c(-c4ccc5c(c4)OC(F)(F)O5)n2)OC[C@]3(C)C(N)=O)cc2oc(C3CC3)nc12` [Example 200] returned an EC50 of less than 200 nM.

In turn, `COc1cc(C(=O)NC[C@@](O)(c2cccc(F)c2)c2cc3c(c(-c4ccncc4Cl)n2)OC[C@]3(C)C(N)=O)cc2cn(C3CC3)nc12` [Example 377] yielded an EC50 greater than 200 nM.

For the molecule `Cc1nccc(-c2nc([C@@](O)(CNC(=O)c3cc(OC4CC4)c4nn(C5(F)CC5)cc4c3)C3CC3)cc3c2OC[C@]3(C)C(N)=O)c1Cl` [Example 602], the concentration giving a half-maximal response (EC50) was less than 200 nM.

`COc1cc(C(=O)NC[C@@](O)(c2cnccn2)c2cc3c(c(-c4cc(Cl)c(F)cc4F)n2)OC[C@]3(C)C(N)=O)cc2cn(C3CC3)nc12` [Example 487] had an EC50 of less than 200 nM.

Molecule `COc1cc([C@](O)(CNC(=O)c2cc(OC)c3nn(C(F)F)cc3c2)c2cc3c(c(-c4cccc(Cl)c4Cl)n2)OC[C@]3(C)C(N)=O)cc(OC)n1` [Example 498] showed an EC50 of less than 200 nM.

As to `COc1cc(C(=O)NC[C@](O)(c2cc3c(c(-n4ccc5ccncc54)n2)OC[C@]3(C)C(N)=O)C2CC2)cc2cn(C3CC3)nc12` [Example 448], the EC50 is greater than 200 nM.

`COc1cc(C(=O)NC[C@](O)(c2cc3c(c(-c4ccnc(C(F)(F)F)c4Cl)n2)OC[C@]3(C)C(N)=O)C(F)(F)F)cc2cc(C3CC3)nn12` [Example 596] displayed an EC50 of less than 200 nM.

Consider `COc1cc(C(=O)NC[C@](O)(c2cc3c(c(-c4c(C)cncc4C)n2)OC[C@]3(C)C(N)=O)C2CC2)cc2cn(C3CC3)nc12` [Example 431], for which the EC50 was less than 200 nM.

For `COc1cc(F)c(F)cc1-c1nc([C@@](O)(CNC(=O)c2cc(OC)c3nn(C4(F)CC4)cc3c2)c2ccccc2)cc2c1OC[C@]2(C)C(N)=O` [Example 365], the EC50 was less than 200 nM.

Consider `COc1cc(C(=O)NC[C@@](O)(c2ccccc2)c2cc3c(c(-c4cc(F)c(F)cc4F)n2)OC[C@]3(C)C(N)=O)cc2cc(Cl)cnc12` [Example 198], for which the EC50 is less than 200 nM.

The molecule `COc1cc(C(=O)NC[C@@](O)(c2cccc(F)n2)c2cc3c(c(-c4cc(Cl)c(F)cc4F)n2)OC[C@]3(C)C(N)=O)cn2cc(C3CC3)nc12` [Example 154] came in with an EC50 of less than 200 nM.

The molecule `COc1cc(C(=O)NC[C@@](O)(c2cccc(F)c2)c2cc3c(c(-c4ccnc(C(F)F)c4Cl)n2)OC[C@]3(C)C(N)=O)cc2oc(C(F)F)nc12` [Example 568] displayed an EC50 of less than 200 nM.

The molecule `COc1cc(C(=O)NC[C@@](O)(c2cccc(F)c2)c2cc3c(c(-c4ccnc(C(F)F)c4Cl)n2)OC[C@]3(C)C(N)=O)cc2cn(C3CC3)nc12` [Example 565] came in with an EC50 of less than 200 nM.

For `COc1cc(C(=O)NC[C@](O)(c2cc3c(c(-c4cc(Cl)c(F)cc4F)n2)OC[C@]3(C)C(N)=O)C2(C)CC2)cc2cn(C3CC3)nc12` [Example 516], the EC50 is less than 200 nM.

`COc1cc(C(=O)NC[C@](O)(c2cc3c(c(-c4cc(F)ncc4F)n2)OC[C@]3(C)C(N)=O)C2CC2)cc2cn(C3CC3)nc12` [Example 382] returned an EC50 of less than 200 nM.

`COc1cc(C(=O)NC[C@@](O)(c2cncnc2)c2cc3c(c(-c4cc(Cl)c(F)cc4F)n2)OC[C@]3(C)C(N)=O)cc2cn(C3CC3)nc12` [Example 479] registered an EC50 of less than 200 nM.

Source of the values: US20240368174A1, “Antiviral Heterocyclic Compounds” (Enanta Pharmaceuticals, Inc., priority 2023, published 2024).
